Test results published in US9447157B2, “Nitration shielding peptides and methods of use thereof” (Augusta University Research Institute, Inc., priority 2013, dated 2016).

Legend:
[1] = molecular target: T1, RhoA (Homo sapiens, UniProt P61586, Y34F); test: Stopped-flow kinetic analysis of mant-GDP/mant-GTP binding to RhoA; conditions: stop-flow analysis, purified Y34F RhoA
T1 construct: polyHis (6His); made in house; host or cells: Escherichia coli BL21
Protocol: RhoA was treated with authentic peroxynitrite (500 μM, 30 min) to induce tyrosine nitration in buffered solution. For kinetic analyses, 2 μM of either mart-GTP or -GDP was mixed with RhoA (0.1 μM) in a stopped-flow instrument (SX-20, […]). Increases in fluorescent intensity mant-nucleotide binding to RhoA were then measured using excitation 350 nm and cutoff filter 395 nm for 0.2-1 second. Acquired kinetic curves for 3-5 experiments were averaged and fitted using the Pro-kineticist software to determine observed binding constants.
To test the validity of the MD data kinetic studies were performed. His-tagged human RhoA construct was expressed in the Escherichia con BL21 strain. First, the bacterial lysate was purified by 6His-tag affinity on a Ni-NTA column. Second, the proteins in the elution fraction from the affinity purification were separated by size-exclusion chromatography (FIG. 11). The fraction containing RhoA was identified both by Coomassie blue staining and Western blot analysis. The recombinant purified RhoA was subjected to rapid flow kinetics to evaluate GDP and GTP binding using fluorescently labeled guanine nucleotides. Peroxynitrite decreases GDP binding to purified RhoA. Human recombinant RhoA was exposed to authentic peroxynitrite (100 μM, 30 min) on ice. […]

[2] = tested on: HLMVEC; test: Gaps formation between cells (ZO-1 immunofluorescence) in HLMVEC; format: cell-based, human; conditions: peptide 100 ng/ml, LPS 1 EU/ml
Protocol: HLMVEC were grown on gelatin-coated coverslips and exposed to LPS in the presence or absence of the NipR1 peptides. The cells were permeabilized and blocked for 1 h at 25° C. in 5% BSA blocking buffer. A primary antibody against ZO-1 (Invitrogen, 1:100 dilution) was added. Plates were incubated overnight at 4° C. then a secondary antibody (AlexaFluor) was added for 2 h. Slides were examined with Zeiss immunofluorescence microscope Axio Observer D1. The gaps between the cells were calculated using Zeiss Axio Observer software.

[3] = molecular target: T2, RhoA (Mus musculus, UniProt Q9QUI0); test: RhoA activity, nitration and protein in lungs of LPS treated mice; format: in vivo
T2 construct: from tissue; host or cells: mouse lung (male C57Bl/6)
T2 sequence (Q9QUI0 whole entry): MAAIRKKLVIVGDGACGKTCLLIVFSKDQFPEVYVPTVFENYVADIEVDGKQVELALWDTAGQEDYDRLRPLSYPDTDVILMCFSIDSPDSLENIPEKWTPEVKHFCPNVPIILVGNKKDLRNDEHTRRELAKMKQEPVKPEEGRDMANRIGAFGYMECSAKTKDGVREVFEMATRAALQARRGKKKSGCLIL
Protocol: The Committee on Animal Research at Georgia Regents University approved all animal protocols and procedures. Stock solutions of Escherichia coli LPS (0111:B4) were prepared in saline. […] Mice were examined 24 h after LPS treatment. At the end of the treatment lungs were flushed with 3 ml of ice-cold PBS (5 mM EDTA), excised, dipped in saline and blotted dry. A portion of the lung was quickly snap-frozen in liquid nitrogen, crushed to powder in a pre-chilled mortar and stored at -80° C. The remaining lung tissue was stored at -80° C. […] After 24 h, mice were sacrificed and lung tissue was obtained to determine RhoA activity and RhoA nitration, LPS induced RhoA activation in the mouse lung as in HLMVEC (FIG. 7A). […] Total RhoA protein levels and basal RhoA nitration were measured. […] Likewise, basal RhoA nitration levels (FIG. 7D) were unchanged.

[4] = tested on: LPS treated mice; test: Mouse model of ALI induced by intra-tracheal LPS: BALF, weight, histopathology, MPO, lung mechanics, cytokines; format: in vivo
Protocol: The Committee on Animal Research at Georgia Regents University approved all animal protocols and procedures. Stock solutions of Escherichia coli LPS (0111:B4) were prepared in saline. […] Mice were examined 24 h after LPS treatment. At the end of the treatment lungs were flushed with 3 ml of ice-cold PBS (5 mM EDTA), excised, dipped in saline and blotted dry. A portion of the lung was quickly snap-frozen in liquid nitrogen, crushed to powder in a pre-chilled mortar and stored at −80° C. The remaining lung tissue was stored at −80° C.
Isolation of Bronchoalveolar Lavage Fluid (BALF) BALF was obtained by instilling and withdrawing 1 mL of PBS via a tracheal cannula. Part of the solution was used to determine protein levels in the BALF. In addition, cells were pelleted at 2,500 g for 10 min and resuspended in water for 15 sec to lyse red blood cells. Leukocytes were resuspended in 1 ml PBS, and total cell count determined using a haemocytometer.
Mice were anesthetized with pentobarbital (90 mg/kg, i.p.), tracheostomized with a metal 1.2 mm (internal diameter) cannula and connected to a Flexi Vent (Scireq Inc) ventilator. Ventilation was initiated at a tidal volume of 10 ml/kg and a rate of 150/min. A TLC maneuver was performed, followed by 15 sec later, by a sinusoidal 1 Hz oscillation. Subsequently, an 8 sec forced oscillatory signal (0.5-19.6 Hz) was applied, the mechanical input impedance of the respiratory system was calculated, and a model containing a constant phase tissue compartment was fit to input impedance in order to evaluate tissue elastance. Dynamic pressure-volume maneuvers were performed by step-wise increasing the airway pressure to 30 cm H2O and then reversing the process.
Lungs were inflated with 10% formalin under 15 cm H2O pressure and immersed in the same solution before tissue processing into paraffin embedded blocks and 4 μm sections were then cut stained with H&E. Histopathological assessment was conducted by two researchers who were masked to treatment group. H&E stained sections were scored for the presence of neutrophil in the alveolar space, neutrophils in the interstitial space, the existence of hyaline membranes, proteinaceous debris filling the airspaces and alveolar septal thickening as described previously (Matute-Bello, et al., Am. J. Respir. Cell Mol. Biol. 44, 725-738 (2011)).
Sections (5 μm) were cut from paraffin blocks and mounted on treated slides (Superfrost+). Slides were air dried overnight, placed in a 60° C. oven for 30 min, deparaffinized in xylene and run through graded alcohol to distilled water. Endogenous peroxidase was quenched with 0.3% H2O2 for 5 min, followed by two rinses with distilled water. Slides were pretreated with Target pH 6, (Dako), rinsed in distilled water, incubated in Power Block (Biogenex), rinsed in distilled water, placed in PBS for 5 min, incubated with primary antimyeloperoxidase (Cappel, 1:2000 dilution) for 30 min at 25° C. After two rinses in PBS, slides were incubated with a peroxidase-labeled polymer conjugated to goat anti-rabbit secondary IgG (Envision+, Dako) for 30 min and rinsed in PBS. Bound antibody was detected with the DAB+ substrate kit, (Dako). Hematoxylin was used as a counter-stain. MPO-stained slides were then evaluated by scoring (0-4) for the presence of neutrophils within the alveolar walls.
Analytes (pg/mL) were assessed with the MCYTOMAG70K assay (EMD Millipore) as previously described (Lucas, R., et al., Proc. Natl. Acad. Sci. USA 109, 2084-2089 (2012)).
Mice were used to perform additional physiological, biochemical and morphological studies to evaluate the efficacy of the NipR1 peptide in attenuating symptoms of ALI. […] After 24 h, mice were anesthetized and BALF was collected. Measurements of lung mechanics were also carried out.

[5] = tested on: human lung microvascular endothelial cells (HLMVEC); test: Endothelial monolayer resistance (ECIS, TER) in LPS-challenged HLMVEC; format: cell-based; conditions: HLMVEC, peptide 100 ng/ml 30 min, then LPS 1 EU/ml
Protocol: The electrical resistance of the endothelial cell monolayer was measured with the electrical cell impedance sensor (ECIS) technique. In this system, the cells are cultured on gold plated electrodes. The change in resistance across the monolayer is measured through an amplifier attached to the arrays. Each study was performed when the resistance reached a plateau. The data was normalized to the initial voltage and plotted as a normalized resistance.
To examine if protein nitration by peroxynitrite is a contributing factor in endothelial barrier disruption in response to LPS, transendothelial resistance (TER) was measured in HLMVEC in the presence or absence of the peroxynitrite scavenger, MnTmPyp. HLMVEC were challenged with LPS (1 EU/ml) in the presence or absence of the peroxynitrite scavenger, MnTMPyP (25 μM).
To evaluate the role played by NOS in the barrier dysfunction, HLMVEC were exposed to LPS in the presence or absence of ETU (a non-specific NOS inhibitor) or 1400W (to inhibit iNOS). HLMVEC were challenged with LPS (1 EU/ml) in the presence or absence of the general NOS inhibitor, ETU (200 μM) or the iNOS specific inhibitor, 1400W (100 μM). The LPS-mediated decrease in TER was attenuated in the presence of ETU, but not 1400W (FIG. 1B). The important role of eNOS was then confirmed using a siRNA approach. HLMVEC were transiently transfected with a siRNA against eNOS or a scrambled control siRNA. After 48 h, there was a significant knockdown of eNOS protein levels (50%), as determined by Western blotting. Reducing eNOS protein levels preserved HLMVEC barrier function when challenged with LPS (FIG. 1C).

[6] = tested on: HLMVEC; test: Total protein nitration (3-NT/β-actin) in LPS-treated HLMVEC; format: cell-based, human; conditions: peptide 100 ng/ml 30 min, then LPS 1 EU/ml
Text: Cell extracts were separated on 4-20% gels and electrophoretically transferred to PVDF membrane (Bio-Rad), then blocked with 5% nonfat dry milk in Tris-buffered saline. The membranes were probed with antibodies to RhoA (Cell Signaling), eNOS (BD), iNOS (Cell Signaling), or 3-Nitrotyrosine (Calbiochem). Reactive bands were visualized using chemi-luminescence (Pierce) on a Kodak 440CF image station. Band intensity was quantified using Kodak 1D image processing software. Protein loading was normalized by re-probing with mouse anti-β-actin.

[7] = peptide i.p. 0.1 mg/kg 6 h prior to i.t. LPS 2 mg/kg, 24 h

T1 sequence (P61586 whole entry Y34F): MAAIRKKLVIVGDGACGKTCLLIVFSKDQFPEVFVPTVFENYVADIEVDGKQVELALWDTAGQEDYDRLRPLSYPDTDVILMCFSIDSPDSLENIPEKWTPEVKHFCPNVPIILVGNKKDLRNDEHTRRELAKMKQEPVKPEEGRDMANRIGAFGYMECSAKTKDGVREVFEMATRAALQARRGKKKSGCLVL

Row | Substance | Binding of GTP (mant-GTP) to RhoA mutant [1] | Cell-cell gaps after LPS [2] | Basal RhoA nitration levels in mouse lung ([3]; peptide alone, no LPS) | Attenuation of LPS-mediated increase in RhoA activity in the mouse lung [3, 7] | Attenuation of LPS-mediated increase in RhoA nitration in the mouse lung [3, 7] | Total RhoA protein levels in mouse lung ([3]; peptide i.p. 0.1 mg/kg, with or without LPS) | LPS-mediated induction of multiple pro-inflammatory cytokines and chemokines in BALF ([4]; LPS + NipR1 vs LPS, MCYTOMAG-70K assay) | Attenuation of LPS induced increase in MPO staining in the alveolar space [4, 7] | Attenuation of LPS-induced increase in total white blood cell counts in BALF [4, 7] | MPO activity in lung homogenates after LPS [4, 7] | Prevention of LPS-induced reduction in lung elastance (dynamic pressure-volume relationships) [4, 7] | Prevention of weight loss associated with LPS exposure [4, 7] | Reduction of LPS-induced histopathological changes in the lungs (H&E) [4, 7] | Inflammatory response induced by LPS ([4]; peptide i.p. prior to i.t. LPS) | Attenuation of LPS-mediated disruption of the HLMVEC barrier (preservation of TER) [5] | Increase in total protein nitration induced by LPS [6]
1 | Y34FRhoA: purified RhoA mutant protein in which the tyrosine residue (Y) was replaced by phenylalanine | No binding |  |  |  |  |  |  |  |  |  |  |  |  |  |  | 
2 | HRKKRRQRRRQFPVYVPTVF (SEQ ID NO:25) (Human immunodeficiency virus) [NipR1] |  | reduction | unchanged | attenuated | attenuated | Neither peptide nor LPS treatment altered | attenuated | attenuated | attenuated | attenuated | prevented | able to prevent | reduced | reduced | attenuated | unaffected
